The values below come from US12721863B2, “Treatment for down syndrome-related accelerated aging” (The Texas A&M University System, priority 2021, dated 2026).

The subject of experiment [1] is Nrf2. Nature of the experiment: Nrf2 Western blot in bEnd.3 cells. The class given is cell-based, mouse. As to conditions: lipoic acid 1 mM alone; FIG. 9.
Description: Culture of bEnd.3 Cells for Nrf2 Study—Mouse brain endothelial (b.End3) cells are grown and maintained in DMEM supplemented with 10% fetal bovine serum and 1% penicillin streptomycin. Once cells reach 90% confluence, cells are split in a 1-to-5 ratio.
Treatment of bEnd.3 Cells for Nrf2 Study—b.End3 cells are seeded on 10-cm petri dishes. On day 4, half of the old media is discarded and replaced with fresh media.
Nrf2 Western blotting—Cell extraction is performed using Cell Lysis Buffer and the provided protocol (ThermoFisher #FNN0011). Proteins are quantified using Bradford assay (Thermofisher #1863028). Same amounts of proteins of each lysate (20 μg) are loaded on an SDS-PAGE gel under reducing conditions (unless stated otherwise). Membrane transfer is done overnight (about 18 hours) in cold room and blocked with 5% dry milk/TBST the next day. Subsequently, the membrane is incubated with primary antibodies overnight (about 18 hours) and with secondary antibodies for an hour in blocking solution. Signals are developed with ECL (ThermoFisher #A43840) and captured with ChemiDoc™ Imaging System.
Experiment [2] concerns DS lymphocytes. As to the kind of experiment: AP39 challenge of DS lymphocytes. The class given is cell-based, human. As to conditions: DS cells; 5 μM AP39; p<0.05; FIG. 10.
Excerpt: (§1) Age-matched and sex-matched DS-donor and apparently healthy individual (AHI) lymphocytes (Coriell Institute, Camden, NJ) are used as a human model of DS.
Experiment [3] deals with AHI lymphocytes. Nature of the experiment: AP39 challenge of AHI lymphocytes. The class given is cell-based, human. As to conditions: AHI cells; 5 μM AP39; p<0.05; FIG. 10.
Excerpt: as §1

On to `O=C(O)CCCC[C@@H]1CCSS1` (racemic) [lipoic acid], for which, in experiment [1], the “Nrf2 signal (Western blot)” value is “some small increases in signal”.

Regarding `O=C(CCCCCCCCC[P+](c1ccccc1)(c1ccccc1)c1ccccc1)Oc1ccc(-c2cc(=S)ss2)cc1.[Br-]` [AP39], in experiment [2], the cell proliferation result was “reduced” and the “viability versus untreated control” value was “significant reduction in viability”. Besides, the cell proliferation result in experiment [3] is “reduced”.
